From ChEMBL document CHEMBL4483862, “Open-source discovery of chemical leads for next-generation chemoprotective antimalarials” (2018)

Tested on: Plasmodium berghei
Test: Luciferase/luciferin-expressing antifolate-resistant parasites were used to infect a culture of HepG2 cells that were pre-incubated with compounds. Infected hepatocytes emit light due to the luciferase reaction. Assay results are presented as the percent inhibition of light emission compared to control. […]
Type: functional
Conditions: sporozoite; for IC90: read-out: LUCIFERASE INFECTION ASSAY - IC90

Structure (SMILES) | IC90 [µM] | other results
CCCc1nc2oc3cc(OC)ccc3c(=O)c2c(=O)n1Cc1ccco1 | > 9.01 | IC50 (PBLUC_HILL_SLOPE 1.9, PBLUC_R_SQUARED 0.121, read-out: LUCIFERASE INFECTION ASSAY - IC50): 5.6 µM
CC1=CC(C)(C)N(C(=O)c2ccc(F)cc2)c2cc3c(cc21)OCO3 | > 9.72 | IC50 (PBLUC_HILL_SLOPE 1.83, PBLUC_R_SQUARED 0.549, read-out: LUCIFERASE INFECTION ASSAY - IC50): 6.14 µM
Cc1ccc(Oc2c(C)nc(-c3ccccc3)nc2O)cc1 | 1.76 | IC50 (PBLUC_HILL_SLOPE 1.81, PBLUC_R_SQUARED 0.898, read-out: LUCIFERASE INFECTION ASSAY - IC50): 0.524 µM
c1cc(-c2cn3c(-c4ccc5c(c4)OCO5)cnc3cn2)cs1 | > 10.3 | IC50 (PBLUC_HILL_SLOPE 1.82, PBLUC_R_SQUARED 0.105, read-out: LUCIFERASE INFECTION ASSAY - IC50): > 10.3 µM
COc1ccc(-c2cnc3cnc(-c4ccc(N)nc4)cn23)cc1 | 8 | IC50 (PBLUC_HILL_SLOPE 1.84, PBLUC_R_SQUARED 0.648, read-out: LUCIFERASE INFECTION ASSAY - IC50): 2.43 µM
Cc1ccc(-c2cnc3ccc(NCc4cccs4)nn23)cc1 | > 10.3 | IC50 (PBLUC_HILL_SLOPE 1.88, PBLUC_R_SQUARED 0.642, read-out: LUCIFERASE INFECTION ASSAY - IC50): 4.8 µM
CC(=O)c1ccc(-c2cnc3sc(NCCN4CCOCC4)nn23)s1 | > 8.74 | IC50 (PBLUC_HILL_SLOPE 1.89, PBLUC_R_SQUARED 0.43, read-out: LUCIFERASE INFECTION ASSAY - IC50): 5.97 µM
Cn1c(Nc2cccc(C(F)(F)F)c2)nc2cnc(-c3ccc(N)nc3)cc21 | > 10 | IC50 (PBLUC_HILL_SLOPE 1.84, PBLUC_R_SQUARED 0.0919, read-out: LUCIFERASE INFECTION ASSAY - IC50): > 10 µM
COc1ccc(NC(=O)CN(C)c2nc(-c3cccnc3)nc3sc(C)c(C)c23)cc1 | 3.92 | IC50 (PBLUC_HILL_SLOPE 1.86E+03, PBLUC_R_SQUARED 0.436, read-out: LUCIFERASE INFECTION ASSAY - IC50): 3.92 µM
COc1cc(-c2nc3ccc(NC(=O)COc4ccccc4)cn3n2)cc(OC)c1OC | > 10 | IC50 (PBLUC_HILL_SLOPE 1.9, PBLUC_R_SQUARED 0.239, read-out: LUCIFERASE INFECTION ASSAY - IC50): 5.59 µM
Cc1ccc(S(=O)(=O)Nc2ccc(Nc3nccn4c(-c5ccc(F)cc5)cnc34)cc2)cc1 | 4.49 | IC50 (PBLUC_HILL_SLOPE 1.86, PBLUC_R_SQUARED 0.706, read-out: LUCIFERASE INFECTION ASSAY - IC50): 1.37 µM
CCN(CC)c1ccc(NC(=O)c2c(F)cccc2F)c(N(CC)CC)n1 | > 8.77 | IC50 (PBLUC_HILL_SLOPE 1.91, PBLUC_R_SQUARED 0.469, read-out: LUCIFERASE INFECTION ASSAY - IC50): 5.46 µM
Cc1ccc(C)c(-n2nnnc2SCC(=O)Nc2nc(-c3ccccn3)cs2)c1 | > 10 | IC50 (PBLUC_HILL_SLOPE 1.88, PBLUC_R_SQUARED 0.631, read-out: LUCIFERASE INFECTION ASSAY - IC50): 5.63 µM
FC(F)(F)c1c(-c2ccccc2)c2cc(Cl)ccc2n1Cc1ccccc1 | > 8.55 | IC50 (PBLUC_HILL_SLOPE 1.92, PBLUC_R_SQUARED 0.0693, read-out: LUCIFERASE INFECTION ASSAY - IC50): 7.21 µM
CC(C)(C)NC(=S)N/N=C/c1ccnc(SCc2ccc(Cl)cc2)n1 | > 8.38 | IC50 (PBLUC_HILL_SLOPE 1.91, PBLUC_R_SQUARED 0.389, read-out: LUCIFERASE INFECTION ASSAY - IC50): 5.71 µM
COc1ccc2c(c1)c(-c1csc(NC(=O)c3ccccn3)n1)c(C)n2C | > 8.72 | IC50 (PBLUC_HILL_SLOPE 1.89, PBLUC_R_SQUARED 0.766, read-out: LUCIFERASE INFECTION ASSAY - IC50): > 8.72 µM
CC(C)n1ncc2cc(C(=O)Nc3nnc(-c4ccccn4)[nH]3)cnc21 | > 10 | IC50 (PBLUC_HILL_SLOPE 1.86, PBLUC_R_SQUARED 0.0303, read-out: LUCIFERASE INFECTION ASSAY - IC50): 6.07 µM
N#Cc1ccc(Sc2c(Cl)cccc2Cl)c(NC(=O)c2cccc(Cl)c2)c1 | > 7.61 | IC50 (PBLUC_HILL_SLOPE 1.82, PBLUC_R_SQUARED 0.326, read-out: LUCIFERASE INFECTION ASSAY - IC50): 6.05 µM
O=C1Nc2ccc([N+](=O)[O-])cc2/C1=N\NC(=O)c1cc2ccccc2cc1O | > 10 | IC50 (PBLUC_HILL_SLOPE 1.88, PBLUC_R_SQUARED 0.548, read-out: LUCIFERASE INFECTION ASSAY - IC50): 4.86 µM
COc1cc(/C=C/c2ccc3ccccc3n2)ccc1OCC(=O)Nc1cccc(C(F)(F)F)c1 | > 10 | IC50 (PBLUC_HILL_SLOPE 1.81, PBLUC_R_SQUARED 0.402, read-out: LUCIFERASE INFECTION ASSAY - IC50): 8.14 µM
CC(C)(C)c1cc(C(=O)OCC(=O)N2CCCCC2)cc(C(C)(C)C)c1 | > 10 | IC50 (PBLUC_HILL_SLOPE 1.88, PBLUC_R_SQUARED 0.16, read-out: LUCIFERASE INFECTION ASSAY - IC50): 8.44 µM

Structure (SMILES) | IC90 [µM] | other results
CC(=O)c1ccc(-c2ccc(C(=O)N3CCc4sccc4C3)o2)cc1 | > 10 | IC50 (PBLUC_HILL_SLOPE 1.84, PBLUC_R_SQUARED 0.357, read-out: LUCIFERASE INFECTION ASSAY - IC50): 4.1 µM
Cc1cc(C(=O)N/N=C2\C(=O)Nc3ccccc32)c(C)n1-c1ccc(F)cc1 | > 10 | IC50 (PBLUC_HILL_SLOPE 1.9, PBLUC_R_SQUARED 0.511, read-out: LUCIFERASE INFECTION ASSAY - IC50): 3.94 µM
Cc1ccc(C(=O)C(C)Oc2ccc(NC(=O)c3cccs3)cc2)cc1 (configuration not stated) | 1.47 | IC50 (PBLUC_HILL_SLOPE 1.89, PBLUC_R_SQUARED 0.795, read-out: LUCIFERASE INFECTION ASSAY - IC50): 0.461 µM
CNC(=O)c1nn(CC2CCCCC2)c2c1CC(NC1CCN(Cc3ccccc3)CC1)CC2 (configuration not stated) | > 7.12 | IC50 (PBLUC_HILL_SLOPE 1.91, PBLUC_R_SQUARED 0.276, read-out: LUCIFERASE INFECTION ASSAY - IC50): 6.52 µM
O=C(Nc1ccc(Cl)cc1)N1CCCN(Cc2ccc(Br)cc2F)CC1 | > 7.49 | IC50 (PBLUC_HILL_SLOPE 1.86, PBLUC_R_SQUARED 0.575, read-out: LUCIFERASE INFECTION ASSAY - IC50): 2.95 µM
Fc1ccc(-c2cnn3c(NCCCN4CCOCC4)ccnc23)cc1Cl | > 8.46 | IC50 (PBLUC_HILL_SLOPE 1.9, PBLUC_R_SQUARED 0.489, read-out: LUCIFERASE INFECTION ASSAY - IC50): 4.05 µM
COc1ccc2nc(C)cc(NC(C)CCc3ccccc3)c2c1 (configuration not stated) | > 10 | IC50 (PBLUC_HILL_SLOPE 1.9, PBLUC_R_SQUARED 0.397, read-out: LUCIFERASE INFECTION ASSAY - IC50): 6.04 µM
CC(C)c1cccc(Nc2cc3c(cn2)nc(Nc2ccccc2)n3C)c1 | > 10 | IC50 (PBLUC_HILL_SLOPE 1.87, PBLUC_R_SQUARED 0.0991, read-out: LUCIFERASE INFECTION ASSAY - IC50): > 10 µM
O=C(Oc1ccc(/C=N/n2cnnc2)cc1)c1ccco1 | > 10 | IC50 (PBLUC_HILL_SLOPE 1.92, PBLUC_R_SQUARED 0.124, read-out: LUCIFERASE INFECTION ASSAY - IC50): > 10 µM
Cc1nc2nc(C(F)(F)F)nn2c(C)c1CCC(=O)NCC(c1cccs1)N1CCC(C)CC1 (configuration not stated) | > 10 | IC50 (PBLUC_HILL_SLOPE 1.88, PBLUC_R_SQUARED 0.575, read-out: LUCIFERASE INFECTION ASSAY - IC50): 6.51 µM
CCCCNc1nc2ccccc2n1CC(=O)Nc1ccc(S(=O)(=O)N2CCCC2)cc1 | > 10 | IC50 (PBLUC_HILL_SLOPE 1.82, PBLUC_R_SQUARED 0.488, read-out: LUCIFERASE INFECTION ASSAY - IC50): 3.67 µM
CS(=O)(=O)c1ccc2c(c1)sc1nc(-c3ccccc3Cl)cn12 | > 10 | IC50 (PBLUC_HILL_SLOPE 1.82, PBLUC_R_SQUARED 0.22, read-out: LUCIFERASE INFECTION ASSAY - IC50): 4.47 µM
O=C1C(=O)N(CCN2CCOCC2)c2ccc(Cl)cc21 | 9.44 | IC50 (PBLUC_HILL_SLOPE 1.82, PBLUC_R_SQUARED 0.307, read-out: LUCIFERASE INFECTION ASSAY - IC50): 2.83 µM
Cc1cccc(N2CCN(C(=O)c3cc4ccccc4o3)CC2C)c1 (configuration not stated) | > 10 | IC50 (PBLUC_HILL_SLOPE 1.92, PBLUC_R_SQUARED 0.443, read-out: LUCIFERASE INFECTION ASSAY - IC50): 4.83 µM
c1ccc(-c2cc3c(Oc4ccc(-n5ccnc5)cc4)ncnc3s2)cc1 | > 10 | IC50 (PBLUC_HILL_SLOPE 1.81, PBLUC_R_SQUARED 0.315, read-out: LUCIFERASE INFECTION ASSAY - IC50): 6.93 µM
CC(C)(C)c1ccc(-n2nnnc2-c2ccccc2)cc1 | > 11.9 | IC50 (PBLUC_HILL_SLOPE 1.83, PBLUC_R_SQUARED 0.134, read-out: LUCIFERASE INFECTION ASSAY - IC50): 6.62 µM
c1ccc(Oc2cccc(-c3ccc4nnc(-c5ccc6c(c5)OCO6)n4c3)c2)cc1 | > 10 | IC50 (PBLUC_HILL_SLOPE 1.92, PBLUC_R_SQUARED 0.18, read-out: LUCIFERASE INFECTION ASSAY - IC50): 8.29 µM
O=C(NCCCNc1ccnc2cc(Cl)ccc12)c1ccccc1F | 6.19 | IC50 (PBLUC_HILL_SLOPE 1.88, PBLUC_R_SQUARED 0.797, read-out: LUCIFERASE INFECTION ASSAY - IC50): 1.93 µM
O=C(NNC(=O)c1csnn1)c1ccc(Cl)cc1 | 0.897 | IC50 (PBLUC_HILL_SLOPE 1.87, PBLUC_R_SQUARED 0.856, read-out: LUCIFERASE INFECTION ASSAY - IC50): 0.277 µM
O=C(Nc1ccc(-n2ccc(C(F)(F)F)n2)cc1)c1cccs1 | 3.61 | IC50 (PBLUC_HILL_SLOPE 1.9, PBLUC_R_SQUARED 0.777, read-out: LUCIFERASE INFECTION ASSAY - IC50): 1.14 µM
